Patent publication US9777297B2 (EASEL BIOTECHNOLOGIES, LLC, priority 2011, dated 2017)

System: engineered E. coli
Assay: n-butyraldehyde toxicity incubation test in sealed tube, colony forming units versus time
Assay type: cell-based
Method: In all cases, including the case in which no addition is made, the number of colony forming units tends to a minimum value (e.g., cells no longer viable) after about 24 hours.

`CCCC=O` [n-butyraldehyde] was tested, and the “change in colony forming units per μL” value (1.0 g/L n-butyraldehyde added, a little after 5 hours) was “net increase” and the “change in colony forming units per μL” value (1.2 g/L and above n-butyraldehyde added, at 4.5 hours) was “net decrease”.
